In US20230295201A1 (Gilead Sciences, Inc., priority 2020, published 2023):
Where two headings read alike, the source gives them in different places.

Tests used:
Format in all cases: cell-based
HCV replicon 2A = test: HCV Rep 2A EC50 (replicon luciferase)
Method: (§1) Compounds were serially diluted in ten steps of 1:3 dilutions in 384-well plates. All serial dilutions were performed in four replicates per compound within the same 384-well plate. […] To each well of a black polystyrene 384-well plate (Greiner Bio-one, Monroe, NC), 90 μL of cell culture medium (without Geneticin) containing 2000 suspended HCV replicon cells was added with a Biotek μFlow workstation. For compound transfer into cell culture plates, 0.4 μL of compound solution from the compound serial dilution plate was transferred to the cell culture plate on a Biomek FX workstation. The DMSO concentration in the final assay wells was 0.44%. The plates were incubated for 3 days at 37° C. with 5% CO2 and 85% humidity. The HCV replicon assay was a multiplex assay, able to assess both cytotoxicity and antireplicon activity from the same well. The CC50 assay was performed first. The media in the 384-well cell culture plate was aspirated, and the wells were washed four times with 100 μL of PBS each, using a Biotek ELX405 plate washer. A volume of 50 μL of a solution containing 400 nM calcein AM (Anaspec, Fremont, CA) in 1×PBS was added to each well of the plate with a Biotek μFlow workstation. The plate was incubated for 30 min at room temperature before the fluorescence signal (excitation 490 nm, emission 520 nm) was measured with a Perkin-Elmer Envision plate reader. The EC50 assay was performed in the same wells as the CC50 assay. The calcein-PBS solution in the 384-well cell culture plate was aspirated with a Biotek ELX405 plate washer. A volume of 20 μL of Dual-Glo luciferase buffer (Promega, Madison, WI) was added to each well of the plate with a Biotek μFlow Workstation. The plate was incubated for 10 min at room temperature. A volume of 20 μL of a solution containing a 1:100 mixture of Dual-Glo Stop & Glo substrate (Promega, Madison, WI) and Dual-Glo Stop & Glo buffer (Promega, Madison, WI) was added to each well of the plate with a Biotek μFlow Workstation. The plate was then incubated at room temperature for 10 min before the luminescence signal was measured with a Perkin-Elmer Envision Plate Reader.

[1] = test system: Dengue serotype 2 New Guinea C (NGC) strain; test: DENV-2 Huh-7 EC50 (qPCR in Huh7 cells)
Method in brief: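 Huh7 cells infected 2 h at 37 °C with DENV-2 NGC at MOI 0.1, then plated with graded compound doses (0.25% DMSO) in triplicate. After 48 h, viral RNA quantified by duplex TaqMan RT-qPCR against GAPDH; EC50 normalized to positive control and no-compound wells.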

HCV replicon 1B = test: HCV Rep 1B EC50 (replicon luciferase)
Method: as §1

[2] = test system: Dengue 2, New Guinea strain (NGC); test: DENV-2 moDC EC50 (qPCR in human monocyte-derived dendritic cells); details: moDCs
Method: Human monocyte-derived dendritic cells (moDCs) were derived from CD14+ monocytes (AllCells) cultured in Human Mo-DC Differentiation medium containing GM-CSF and IL-4 (Miltenyi Biotec). On day 7, moDCs were harvested by mechanical disruption, washed and suspended in serum-free RPMI. moDCs were infected with Vero-derived Dengue 2, New Guinea strain (NGC) at a MOI=0.1 for two hours in serum-free RPMI with gentle agitation at 37° C. Cells were washed and resuspended in 10% serum-containing RPMI (Gibco, supplemented with sodium pyruvate, NEAA, Penicillin-Streptomycin). 10^5 cells were plated in triplicate in 96-well plates with compounds dispensed at graded doses (Hewlett-Packard D300 Digital Dispenser). All wells were normalized to 0.25% DMSO. At 48 hours, cells were washed with 1×PBS and all supernatants removed. Total RNA was extracted using RNEasy 96 plates (Qiagen) and used to generate first-strand cDNA using XLT cDNA 5× Supermix (QuantaBio). cDNA was used as a template in a Taqman qPCR duplex reaction specific to DENV2 viral and GAPDH gene expression. EC50 values were determined using Prism Graphpad software, with normalization to a positive control and no compound negative control wells.

[3] = read-out: HCV Rep 2A EC50, replicon cells, 3 days
[4] = read-out: HCV Rep 1B EC50, replicon cells, 3 days
[5] = Dengue virus, DENV2, Dendritic cell, 48 h
[6] = Hepatitis C virus, 72 h, read-out: HCV Rep 2A EC50, replicon cells, 3 days
[7] = Dengue virus, DENV2, Huh-7, 48 h
[8] = Hepatitis C virus, 72 h, read-out: HCV Rep 1B EC50, replicon cells, 3 days

Row | SMILES | EC50 [2, 5] [nM] | EC50 (HCV replicon 2A; [6]) [nM] | EC50 [1, 7] [nM] | EC50 (HCV replicon 1B; [8]) [nM] | also measured
1 | C[C@H](NP(=O)(OC[C@@]1(C#N)O[C@@H](c2ccc3c(N)ncnn23)[C@H](O)[C@@H]1O)Oc1ccccc1)C(=O)OCC1CCCCC1 (single isomer, unassigned) [Example 248] |  |  |  |  | EC50 (HCV replicon 2A; [3]): 1180 nM; EC50 ([1]; 48 hours): 756 nM; EC50 (HCV replicon 1B; [4]): 503 nM
2 | C[C@H](NP(=O)(OC[C@@]1(C#N)O[C@@H](c2ccc3c(N)ncnn23)[C@H](O)[C@@H]1O)Oc1ccccc1)C(=O)OCCC(C)(C)C (stereo partly drawn) [Example 251, 3,3-dimethylbutyl ((((2R,3S,4R,5S)-5-(4-aminopyrrolo[2,1-f][1,2,4]triazin-7-yl)-2-cyano-3,4-dihydroxytetrahydrofuran-2-yl)methoxy)(phenoxy)phosphoryl)-L-alaninate] | 116 | 1110 | 529 | 595 | 
3 | C[C@H](NP(=O)(OC[C@@]1(C#N)O[C@@H](c2ccc3c(N)ncnn23)[C@H](O)[C@@H]1O)Oc1ccccc1)C(=O)OCC(C)(C)C (stereo partly drawn) [Example 92, (2S)-neopentyl 2-(((((2R,3S,4R,5S)-5-(4-aminopyrrolo[2,1-f][1,2,4]triazin-7-yl)-2-cyano-3,4-dihydroxytetrahydrofuran-2-yl)methoxy)(phenoxy)phosphoryl)amino)propanoate] |  | 2900 |  | 16500 | 
4 | C[C@H](N[P@](=O)(OC[C@@]1(C#N)O[C@@H](c2ccc3c(N)ncnn23)[C@H](O)[C@@H]1O)Oc1ccccc1)C(=O)OCC(C)(C)C [Example 94] |  |  |  |  | EC50 ([2]; 48 hours): 398 nM; EC50 (HCV replicon 2A; replicon cells, 3 days, read-out: HCV Rep 2A EC50): 493 nM; EC50 ([1]; 48 hours): 451 nM; EC50 (HCV replicon 1B; replicon cells, 3 days, read-out: HCV Rep 1B EC50): 278 nM
5 | C[C@H](NP(=O)(OC[C@@]1(C#N)O[C@@H](c2ccc3c(N)ncnn23)[C@H](O)[C@@H]1O)Oc1ccccc1)C(=O)OCC1CCCCC1 (single isomer, unassigned) [Example 247] |  | 1680 | 1280 | 665 | 
6 | CCCCCCOC(=O)[C@H](C)NP(=O)(OC[C@@]1(C#N)O[C@@H](c2ccc3c(N)ncnn23)[C@H](O)[C@@H]1O)Oc1ccccc1 (stereo partly drawn) [Example 192, hexyl ((((2R,3S,4R,5S)-5-(4-aminopyrrolo[2,1-f][1,2,4]triazin-7-yl)-2-cyano-3,4-dihydroxytetrahydrofuran-2-yl)methoxy)(phenoxy)phosphoryl)-L-alaninate] | 534 |  | 2760 |  | 
7 | C[C@H](NP(=O)(OC[C@@]1(C#N)O[C@@H](c2ccc3c(N)ncnn23)[C@H](O)[C@@H]1O)Oc1ccccc1)C(=O)OC1CCCCC1 (stereo partly drawn) [Example 4, (2S)-cyclohexyl 2-(((((2R,3S,4R,5S)-5-(4-aminopyrrolo[2,1-f][1,2,4]triazin-7-yl)-2-cyano-3,4-dihydroxytetrahydrofuran-2-yl)methoxy)(phenoxy)phosphoryl)amino)propanoate] |  | 9200 |  | 52700 | 
8 | CCC(CC)COC(=O)[C@H](CC)NP(=O)(OC[C@@]1(C#N)O[C@@H](c2ccc3c(N)ncnn23)[C@H](O)[C@@H]1O)Oc1ccccc1 (mixture of isomers) [Example 88, (2S)-2-ethylbutyl 2-(((((2R,3S,4R,5S)-5-(4-aminopyrrolo[2,1-f][1,2,4]triazin-7-yl)-2-cyano-3,4-dihydroxytetrahydrofuran-2-yl)methoxy)(phenoxy)phosphoryl)amino)butanoate] |  | 27700 | > 25000 | 23700 | 
9 | CCOC(=O)[C@H](C)N[P@](=O)(OC[C@@]1(C#N)O[C@@H](c2ccc3c(N)ncnn23)[C@H](O)[C@@H]1O)Oc1ccccc1 [Example 29, Ethyl ((S)-(((2R,3S,4R,5S)-5-(4-aminopyrrolo[2,1-f][1,2,4]triazin-7-yl)-2-cyano-3,4-dihydroxytetrahydrofuran-2-yl)methoxy)(phenoxy)phosphoryl)-L-alaninate] | > 5000 |  | 1880 |  | 
10 | C[C@H](NP(=O)(OC[C@@]1(C#N)O[C@@H](c2ccc3c(N)ncnn23)[C@H](O)[C@@H]1O)Oc1ccccc1)C(=O)OCCC(C)(C)C (single isomer, unassigned) [Example 252] | 284 | 1650 | 697 | 624 | 
11 | CCC(C)(C)COC(=O)[C@H](C)NP(=O)(OC[C@@]1(C#N)O[C@@H](c2ccc3c(N)ncnn23)[C@H](O)[C@@H]1O)Oc1ccccc1 (stereo partly drawn) [Example 254, 2,2-dimethylbutyl ((((2R,3S,4R,5S)-5-(4-aminopyrrolo[2,1-f][1,2,4]triazin-7-yl)-2-cyano-3,4-dihydroxytetrahydrofuran-2-yl)methoxy)(phenoxy)phosphoryl)-L-alaninate] | 90 | 787 | 797 | 368 | 
12 | C[C@H](NP(=O)(OC[C@@]1(C#N)O[C@@H](c2ccc3c(N)ncnn23)[C@H](O)[C@@H]1O)Oc1cccc2ccccc12)C(=O)OC1CCCCC1 (stereo partly drawn) [Example 203, cyclohexyl ((((2R,3S,4R,5S)-5-(4-aminopyrrolo[2,1-f][1,2,4]triazin-7-yl)-2-cyano-3,4-dihydroxytetrahydrofuran-2-yl)methoxy)(naphthalen-1-yloxy)phosphoryl)-L-alaninate] | 599 | 671 | 1730 | 332 | 
13 | C[C@H](NP(=O)(OC[C@@]1(C#N)O[C@@H](c2ccc3c(N)ncnn23)[C@H](O)[C@@H]1O)Oc1ccccc1)C(=O)OCCC(C)(C)C (single isomer, unassigned) [Example 253] |  |  |  |  | EC50 ([2]; 48 hours): 429 nM; EC50 (HCV replicon 2A; [3]): 887 nM; EC50 ([1]; 48 hours): 489 nM; EC50 (HCV replicon 1B; [4]): 452 nM
14 | COC(=O)[C@H](C)N[P@](=O)(OC[C@@]1(C#N)O[C@@H](c2ccc3c(N)ncnn23)[C@H](O)[C@@H]1O)Oc1ccccc1 [Example 52, methyl ((S)-(((2R,3S,4R,5S)-5-(4-aminopyrrolo[2,1-f][1,2,4]triazin-7-yl)-2-cyano-3,4-dihydroxytetrahydrofuran-2-yl)methoxy)(phenoxy)phosphoryl)-L-alaninate] |  | 7460 | 5480 | 3960 | 
